In ChEMBL document CHEMBL1201862, “PubChem BioAssay data set” (2004):
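Grown in 96-well plates, cells were treated for 48 hours with each compound at five concentrations. Insufficient inhibition: endpoint recorded as highest concentration tested. At the GI50, growth is halved.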 Activity calls are given as the source filed them. Rule as the data show it: active = GI50 up to about 1.1 µM and inactive = higher.

How the values were obtained:
Assay in all cases: NCI anticancer screen, dose series, 48 h
COLO 205 = tested on: COLO 205
DU-145 = tested on: DU-145
EKVX = tested on: EKVX
HCT-116 = tested on: HCT-116
IGROV-1 = tested on: IGROV-1
KM12 = tested on: KM12
LOX IMVI = tested on: LOX IMVI
MDA-MB-231 = tested on: MDA-MB-231
MDA-MB-435 = tested on: MDA-MB-435
MDA-N = tested on: MDA-N
NCI/ADR-RES = tested on: NCI/ADR-RES
OVCAR-3 = tested on: OVCAR-3
OVCAR-4 = tested on: OVCAR-4
OVCAR-8 = tested on: OVCAR-8
PC-3 = tested on: PC-3
SNB-75 = tested on: SNB-75
SW-620 = tested on: SW-620
T47D = tested on: T47D
TK-10 = tested on: TK-10
U-251 = tested on: U-251

Row | SMILES | GI50 (COLO 205) | GI50 (DU-145) | GI50 (EKVX) | GI50 (HCT-116) | GI50 (IGROV-1) | GI50 (KM12) | GI50 (LOX IMVI) | GI50 (MDA-MB-231) | GI50 (MDA-MB-435) | GI50 (MDA-N) | GI50 (NCI/ADR-RES) | GI50 (OVCAR-3) | GI50 (OVCAR-4) | GI50 (OVCAR-8) | GI50 (PC-3) | GI50 (SNB-75) | GI50 (SW-620) | GI50 (T47D) | GI50 (TK-10) | GI50 (U-251)
1 | O=C(O)c1nnsc1-c1csnn1 | > 100 µM (inactive) | > 100 µM (inactive) | > 100 µM (inactive) | > 100 µM (inactive) | > 100 µM (inactive) | > 100 µM (inactive) | > 100 µM (inactive) | > 100 µM (inactive) | > 100 µM (inactive) | > 100 µM (inactive) | > 100 µM (inactive) | > 100 µM (inactive) | > 100 µM (inactive) | > 100 µM (inactive) | > 100 µM (inactive) | > 100 µM (inactive) | > 100 µM (inactive) | > 100 µM (inactive) | 74.8 µM (inactive) | > 100 µM (inactive)
2 | N#CC(c1ccccc1)(c1ccccc1)[C@@H](c1ccccc1)[C@H](Cc1ccccc1)NS(=O)(=O)c1ccccc1 | > 100 µM (inactive) | > 100 µM (inactive) | > 100 µM (inactive) | > 100 µM (inactive) | > 100 µM (inactive) | > 100 µM (inactive) | > 100 µM (inactive) | > 100 µM (inactive) | > 100 µM (inactive) | > 100 µM (inactive) | > 100 µM (inactive) | > 100 µM (inactive) | > 100 µM (inactive) | > 100 µM (inactive) | 46.7 µM (inactive) | > 100 µM (inactive) | > 100 µM (inactive) | > 100 µM (inactive) | > 100 µM (inactive) | > 100 µM (inactive)
3 | O=C1C(Cl)=C(N[C@@H](Cc2ccccc2)C(=O)OCc2ccccc2)C(=O)c2c(O)ccc(O)c21 | 2.28 µM (inactive) | 4.45 µM (inactive) | 7.18 µM (inactive) | 1.65 µM (inactive) | 4.08 µM (inactive) | 4.45 µM (inactive) | 2.99 µM (inactive) | 2.55 µM (inactive) | 3.17 µM (inactive) | 2.89 µM (inactive) | 1.88 µM (inactive) | 2.45 µM (inactive) | 3.31 µM (inactive) | 3.73 µM (inactive) | 3.72 µM (inactive) | 4.73 µM (inactive) | 5.65 µM (inactive) | > 10 µM (inactive) | > 10 µM (inactive) | 3.01 µM (inactive)
4 | COC(=O)c1sc2c(=O)c(C(=O)OC)c(C(=O)OC)sc2c(=O)c1C(=O)OC | > 100 µM (inactive) | > 100 µM (inactive) | > 100 µM (inactive) | > 100 µM (inactive) | > 67.8 µM (inactive) | > 100 µM (inactive) | 73.3 µM (inactive) | > 100 µM (inactive) | > 100 µM (inactive) | > 100 µM (inactive) | > 100 µM (inactive) | > 100 µM (inactive) | > 100 µM (inactive) | > 100 µM (inactive) | > 100 µM (inactive) | > 100 µM (inactive) | > 100 µM (inactive) | > 100 µM (inactive) | > 100 µM (inactive) | > 80.9 µM (inactive)
5 | Cc1c(C)n(-c2ccccc2)c2nc([S+](C)[O-])nc([S+](C)[O-])c12 (stereo not given) | 1.75 µM (inactive) | 14.4 µM (inactive) | 6.92 µM (inactive) | 2.14 µM (inactive) | 3.79 µM (inactive) | 13.3 µM (inactive) | 1.81 µM (inactive) | 4.74 µM (inactive) | 3.1 µM (inactive) | 3.68 µM (inactive) | 22.9 µM (inactive) | 2.61 µM (inactive) | 4.85 µM (inactive) | 4.09 µM (inactive) | 7 µM (inactive) | 9.1 µM (inactive) | 1.79 µM (inactive) | 2.44 µM (inactive) | 1.52 µM (inactive) | 8.53 µM (inactive)
6 | COC1C(O)C(O[C@H]2CC[C@@]3(C)C(CC[C@@H]4[C@@H]3CC[C@]3(C)[C@@H](C(C)OC5OC(CO)C(O)C(O)C5O)CC[C@]43O)C2)OC(C)C1OC1OC(CO)C(O)C(O)C1O (stereo not given in full) | > 100 µM (inactive) | > 100 µM (inactive) | > 100 µM (inactive) | > 100 µM (inactive) | > 100 µM (inactive) | > 100 µM (inactive) | > 100 µM (inactive) | > 100 µM (inactive) | > 100 µM (inactive) | > 100 µM (inactive) | > 100 µM (inactive) | > 100 µM (inactive) | > 100 µM (inactive) | > 100 µM (inactive) | > 100 µM (inactive) | > 100 µM (inactive) | > 100 µM (inactive) | > 100 µM (inactive) | > 100 µM (inactive) | > 100 µM (inactive)
7 | COc1cc(OC)c(C/C=C/c2ccccc2)cc1O | 22 µM (inactive) | 17.1 µM (inactive) | 17.2 µM (inactive) | 16.4 µM (inactive) | 16.3 µM (inactive) | 17.7 µM (inactive) | 16 µM (inactive) | 17.9 µM (inactive) | 17 µM (inactive) | 18.1 µM (inactive) | 14.5 µM (inactive) | 14.7 µM (inactive) | 14 µM (inactive) | 16.1 µM (inactive) | 17.1 µM (inactive) | 14.6 µM (inactive) | 18.9 µM (inactive) | 10.6 µM (inactive) | 16.4 µM (inactive) | 16.7 µM (inactive)
8 | O=c1[nH]c(-c2ccccc2)nc2c1sc1nc3ccccc3n12 | > 100 µM (inactive) | > 100 µM (inactive) | > 100 µM (inactive) | > 100 µM (inactive) | > 100 µM (inactive) | > 92.7 µM (inactive) | > 100 µM (inactive) | > 100 µM (inactive) | > 100 µM (inactive) | > 100 µM (inactive) | > 100 µM (inactive) | > 100 µM (inactive) | > 81.3 µM (inactive) | > 100 µM (inactive) | > 100 µM (inactive) | > 63.1 µM (inactive) | > 100 µM (inactive) | > 100 µM (inactive) | > 100 µM (inactive) | > 87.7 µM (inactive)
9 | CCOC(=O)c1sc2ncnc(N)c2c1C | 19.6 µM (inactive) | 68.7 µM (inactive) | 25.9 µM (inactive) | 30.5 µM (inactive) | 22.1 µM (inactive) | 47.1 µM (inactive) | 43.8 µM (inactive) | > 100 µM (inactive) | 36 µM (inactive) | 41.8 µM (inactive) | > 100 µM (inactive) | > 100 µM (inactive) | 20.4 µM (inactive) | 35 µM (inactive) | 68.5 µM (inactive) | 35.1 µM (inactive) | > 100 µM (inactive) | 24.2 µM (inactive) | 34 µM (inactive) | > 100 µM (inactive)
10 | COc1ccc(-c2cc(-c3ccc(Nc4ccnc5cc(C(F)(F)F)ccc45)cc3)[nH]c(=O)c2C#N)cc1 | > 39.4 µM (inactive) | > 84.7 µM (inactive) | 98.9 µM (inactive) | 11.4 µM (inactive) | > 81.5 µM (inactive) | > 100 µM (inactive) | 16.6 µM (inactive) | 24.9 µM (inactive) | 39.6 µM (inactive) | > 34.5 µM (inactive) | > 100 µM (inactive) | > 100 µM (inactive) | > 100 µM (inactive) | > 77.4 µM (inactive) | > 100 µM (inactive) | 8.24 µM (inactive) | > 100 µM (inactive) | 45.7 µM (inactive) | > 43.6 µM (inactive) | 9.57 µM (inactive)
11 | Cc1cc(C)nc(SC(C)C(=O)N/N=C/c2ccc(OCc3ccccc3)cc2)n1 (stereo not given) | 20.8 µM (inactive) | 37.7 µM (inactive) | 25.2 µM (inactive) | 23.9 µM (inactive) | 54.8 µM (inactive) | > 100 µM (inactive) | 22.1 µM (inactive) | 19.7 µM (inactive) | 26.7 µM (inactive) | 22.8 µM (inactive) | 21.8 µM (inactive) | 19.7 µM (inactive) | 15.7 µM (inactive) | 30.4 µM (inactive) | 22.4 µM (inactive) | 33 µM (inactive) | 39.5 µM (inactive) | 9.53 µM (inactive) | 27.2 µM (inactive) | 17 µM (inactive)
12 | CCCCCC1=C/C(=C\c2[nH]c(-c3ccc[nH]3)cc2OC)N=C1C | < 0.01 µM (active) | < 0.01 µM (active) | 0.0145 µM (active) | < 0.01 µM (active) | 0.017 µM (active) | < 0.01 µM (active) | < 0.01 µM (active) | < 0.01 µM (active) | < 0.01 µM (active) | < 0.01 µM (active) | < 0.01 µM (active) | < 0.01 µM (active) | < 0.01 µM (active) | < 0.01 µM (active) | < 0.01 µM (active) | < 0.01 µM (active) | < 0.01 µM (active) | 0.0189 µM (active) | 0.0329 µM (active) | 0.0122 µM (active)
13 | N#C[BH2-][n+]1ccc(C(=O)NNCc2cccc(C(F)(F)F)c2)cc1 | 14.1 µM (inactive) | 33.1 µM (inactive) | 27.3 µM (inactive) | 15.2 µM (inactive) | 30.1 µM (inactive) | 4.76 µM (inactive) | 4.26 µM (inactive) | 10.4 µM (inactive) | 17.7 µM (inactive) | 10.2 µM (inactive) | 11.6 µM (inactive) | 10.9 µM (inactive) | 6.14 µM (inactive) | 3.98 µM (inactive) | 13.8 µM (inactive) | 3.85 µM (inactive) | 25.5 µM (inactive) | 20 µM (inactive) | 27.3 µM (inactive) | 7.71 µM (inactive)
14 | CCCNC1=C2CC(C)CC(OC)[C@@H](O)[C@H](C)/C=C(\C)C(OC(N)=O)C(OC)/C=C\C=C(/C)C(=O)NC(=CC1=O)C2=O (stereo not given in full) | 0.0319 µM (active) | 0.111 µM (active) | 3.36 µM (inactive) | 0.231 µM (active) | 0.498 µM (active) | 0.0362 µM (active) | 0.103 µM (active) | 0.318 µM (active) | 0.274 µM (active) | 0.118 µM (active) | 3.31 µM (inactive) | 1.65 µM (inactive) | 26.6 µM (inactive) | 0.337 µM (active) | 0.411 µM (active) | 0.318 µM (active) | 0.0379 µM (active) | 0.476 µM (active) | 0.201 µM (active) | 0.579 µM (active)
